Test results reported in the supplement of paper PMC10307832.

Experiments:
Assay in all cases: relative viability (nuclei count vs DMSO), 5 days (fraction); higher = more cells survive
[1] = test system: ChaGo-K-1
In short: (§1)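 Lung cancer cell lines, seeded in 1536-well plates, were treated the following day by pin tool with a single drug or with five library-drug doses (not always all listed) in √10 steps on top of a fixed anchor-drug dose. Cells were fixed and nuclei stained in one step after 5 days, and nuclei were counted. Relative viability is the nuclei count for treated wells divided by that for vehicle wells, reported as medians of duplicate plates.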

[2] = test system: HCC-827
In short: as §1

[3] = test system: NCI-H1755
In short: as §1

[4] = test system: NCI-H2347
In short: as §1

[5] = test system: NCI-H322M
In short: as §1

[6] = test system: NCI-H520
In short: as §1

[7] = test system: LXF-289
In short: as §1

[8] = test system: RERF-LC-KJ
In short: as §1

[9] = test system: ABC-1
In short: as §1

[10] = test system: NCI-H3122
In short: as §1

[11] = test system: NCI-H1793
In short: as §1

[12] = test system: LCLC-103H
In short: as §1

[13] = test system: LU99A
In short: as §1

[14] = test system: NCI-H1944
In short: as §1

[15] = test system: NCI-H2126
In short: as §1

[16] = test system: HCC-44
In short: as §1

[17] = test system: NCI-H1395
In short: as §1

[18] = test system: CAL-12T
In short: as §1

[19] = test system: NCI-H358
In short: as §1

[20] = test system: SK-LU-1
In short: as §1

[21] = test system: NCI-H1666
In short: as §1

Cc1csc(=NC2CCCCC2)n1/N=C/c1ccc(O)c(O)c1O [MIM1] + O=C(CCCCCCC(=O)Nc1ccccc1)NO [Vorinostat] (partner 1 µM)
relative viability ([1]; first compound 0.2 µM): 0.714 | relative viability ([1]; first compound 0.6325 µM): 0.449 | relative viability ([1]; first compound 2 µM): 0.699 | relative viability ([1]; first compound 6.325 µM): 0.543 | relative viability ([1]; first compound 20 µM): 0.157 | relative viability ([2]; first compound 0.2 µM): 0.871 | relative viability ([2]; first compound 0.6325 µM): 0.731 | relative viability ([2]; first compound 2 µM): 0.777 | relative viability ([2]; first compound 6.325 µM): 0.231 | relative viability ([2]; first compound 20 µM): 0.349 | relative viability ([3]; first compound 0.2 µM): 0.708 | relative viability ([3]; first compound 0.6325 µM): 0.65 | relative viability ([3]; first compound 2 µM): 0.792 | relative viability ([3]; first compound 6.325 µM): 0.671 | relative viability ([3]; first compound 20 µM): 0.296 | relative viability ([4]; first compound 0.2 µM): 0.68 | relative viability ([4]; first compound 0.6325 µM): 0.643 | relative viability ([4]; first compound 2 µM): 0.652 | relative viability ([4]; first compound 6.325 µM): 0.449 | relative viability ([4]; first compound 20 µM): 0.315 | relative viability ([5]; first compound 0.2 µM): 0.889 | relative viability ([5]; first compound 0.6325 µM): 0.917 | relative viability ([5]; first compound 2 µM): 0.789 | relative viability ([5]; first compound 6.325 µM): 0.733 | relative viability ([5]; first compound 20 µM): 0.418 | relative viability ([6]; first compound 0.2 µM): 0.64 | relative viability ([6]; first compound 0.6325 µM): 0.744 | relative viability ([6]; first compound 2 µM): 0.833 | relative viability ([6]; first compound 6.325 µM): 0.538 | relative viability ([6]; first compound 20 µM): 0.308 | relative viability ([7]; first compound 0.2 µM): 0.777 | relative viability ([7]; first compound 0.6325 µM): 0.462 | relative viability ([7]; first compound 2 µM): 0.665 | relative viability ([7]; first compound 6.325 µM): 0.499 | relative viability ([7]; first compound 20 µM): 0.304 | relative viability ([8]; first compound 0.2 µM): 0.616 | relative viability ([8]; first compound 0.6325 µM): 0.558 | relative viability ([8]; first compound 2 µM): 0.507 | relative viability ([8]; first compound 6.325 µM): 0.317 | relative viability ([8]; first compound 20 µM): 0.225 | relative viability ([9]; first compound 0.2 µM): 1.42 | relative viability ([9]; first compound 0.6325 µM): 0.87 | relative viability ([9]; first compound 2 µM): 0.994 | relative viability ([9]; first compound 6.325 µM): 0.497 | relative viability ([9]; first compound 20 µM): 0.247 | relative viability ([10]; first compound 0.2 µM): 0.959 | relative viability ([10]; first compound 0.6325 µM): 0.894 | relative viability ([10]; first compound 2 µM): 1.02 | relative viability ([10]; first compound 6.325 µM): 0.618 | relative viability ([10]; first compound 20 µM): 0.127 | relative viability ([11]; first compound 0.2 µM): 0.783 | relative viability ([11]; first compound 2 µM): 0.732 | relative viability ([11]; first compound 6.325 µM): 0.649 | relative viability ([11]; first compound 20 µM): 0.553 | relative viability ([12]; first compound 0.2 µM): 0.731 | relative viability ([12]; first compound 0.6325 µM): 0.39 | relative viability ([12]; first compound 2 µM): 0.768 | relative viability ([12]; first compound 6.325 µM): 0.48 | relative viability ([12]; first compound 20 µM): 0.342 | relative viability ([13]; first compound 0.2 µM): 0.515 | relative viability ([13]; first compound 0.6325 µM): 0.435 | relative viability ([13]; first compound 2 µM): 0.463 | relative viability ([13]; first compound 6.325 µM): 0.387 | relative viability ([13]; first compound 20 µM): 0.119 | relative viability ([14]; first compound 0.2 µM): 0.548 | relative viability ([14]; first compound 0.6325 µM): 0.499 | relative viability ([14]; first compound 2 µM): 0.39 | relative viability ([14]; first compound 6.325 µM): 0.428 | relative viability ([14]; first compound 20 µM): 0.228 | relative viability ([15]; first compound 0.2 µM): 0.745 | relative viability ([15]; first compound 0.6325 µM): 0.454 | relative viability ([15]; first compound 2 µM): 0.838 | relative viability ([15]; first compound 6.325 µM): 0.711 | relative viability ([15]; first compound 20 µM): 0.404 | relative viability ([16]; first compound 0.2 µM): 1.1 | relative viability ([16]; first compound 0.6325 µM): 1.1 | relative viability ([16]; first compound 2 µM): 1.01 | relative viability ([16]; first compound 6.325 µM): 1.08 | relative viability ([16]; first compound 20 µM): 0.324 | relative viability ([17]; first compound 0.2 µM): 0.799 | relative viability ([17]; first compound 0.6325 µM): 0.626 | relative viability ([17]; first compound 2 µM): 0.641 | relative viability ([17]; first compound 6.325 µM): 0.422 | relative viability ([17]; first compound 20 µM): 0.322 | relative viability ([18]; first compound 0.2 µM): 0.765 | relative viability ([18]; first compound 0.6325 µM): 0.752 | relative viability ([18]; first compound 2 µM): 0.801 | relative viability ([18]; first compound 6.325 µM): 0.588 | relative viability ([18]; first compound 20 µM): 0.595 | relative viability ([19]; first compound 0.2 µM): 0.741 | relative viability ([19]; first compound 0.6325 µM): 0.628 | relative viability ([19]; first compound 2 µM): 0.678 | relative viability ([19]; first compound 6.325 µM): 0.235 | relative viability ([19]; first compound 20 µM): 0.169 | relative viability ([20]; first compound 0.2 µM): 0.764 | relative viability ([20]; first compound 0.6325 µM): 0.837 | relative viability ([20]; first compound 2 µM): 0.957 | relative viability ([20]; first compound 6.325 µM): 0.623 | relative viability ([20]; first compound 20 µM): 0.393 | relative viability ([21]; first compound 0.2 µM): 1.01 | relative viability ([21]; first compound 0.6325 µM): 0.922 | relative viability ([21]; first compound 2 µM): 1.08 | relative viability ([21]; first compound 6.325 µM): 0.769 | relative viability ([21]; first compound 20 µM): 0.477
